The structures appear in SMILES notation.

These results are taken from ChEMBL document CHEMBL1833927, “Constructing transferrin receptor targeted drug delivery system by using doxorubicin hydrochloride and vanadocene dichloride” (Bioorg Med Chem Lett, 2011).

Experiment [1] concerns the target Serotransferrin (Homo sapiens) (UniProt P02787). Kind of experiment: Binding affinity to human serum transferrin after 12 hrs at pH 7.4 by spectrofluorometer method.
The target is the same in experiment [2]. Kind of experiment: Binding affinity to human serum transferrin after 12 hrs at pH 4.8 by spectrofluorometer method.
For experiment [3] the target is unchanged. Kind of experiment: Binding affinity to human apo transferrin after 12 hrs at pH 7.4 by spectrofluorometer method.
Experiment [4] has the same target. In words: Binding affinity to human apo transferrin after 12 hrs at pH 4.8 by spectrofluorometer method.
Experiment [5] deals with A549. Kind of experiment: Antiproliferative activity against human A549 cells by MTT assay. It is filed as functional, cell-based.
Experiment [6] has as its system A549. Kind of experiment: Antiproliferative activity against human A549 cells by MTT assay in presence of human serum transferrin/apo transferrin. It is filed as functional, cell-based. In general terms: Formazan colour is commonly taken as a measure of viable cells.

Sequence of Serotransferrin (Homo sapiens) (P02787 whole entry): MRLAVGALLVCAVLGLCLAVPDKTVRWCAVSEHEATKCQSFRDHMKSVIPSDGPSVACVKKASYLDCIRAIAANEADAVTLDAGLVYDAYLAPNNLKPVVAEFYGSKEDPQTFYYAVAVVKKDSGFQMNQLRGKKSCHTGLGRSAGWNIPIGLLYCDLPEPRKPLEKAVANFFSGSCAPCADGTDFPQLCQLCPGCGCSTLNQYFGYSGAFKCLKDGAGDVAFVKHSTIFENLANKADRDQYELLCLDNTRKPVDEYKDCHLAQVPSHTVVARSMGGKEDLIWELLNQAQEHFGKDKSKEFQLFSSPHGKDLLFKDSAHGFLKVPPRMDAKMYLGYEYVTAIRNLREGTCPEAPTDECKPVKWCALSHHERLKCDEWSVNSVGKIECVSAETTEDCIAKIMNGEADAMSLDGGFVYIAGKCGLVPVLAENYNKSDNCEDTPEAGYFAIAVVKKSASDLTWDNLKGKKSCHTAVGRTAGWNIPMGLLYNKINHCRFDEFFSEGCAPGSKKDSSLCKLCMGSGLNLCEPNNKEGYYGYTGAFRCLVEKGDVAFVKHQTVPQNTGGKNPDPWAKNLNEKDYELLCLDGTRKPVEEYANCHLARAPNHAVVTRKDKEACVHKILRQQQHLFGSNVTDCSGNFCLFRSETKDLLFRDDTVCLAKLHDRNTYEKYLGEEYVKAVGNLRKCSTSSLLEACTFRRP

For `COc1cccc2c1C(=O)c1c(O)c3c(c(O)c1C2=O)C[C@@](O)(C(=O)CO)C[C@@H]3O[C@H]1C[C@H](N)[C@H](O)[C@H](C)O1`, the Ka in experiment [1] came out at 32600 M⁻¹; in experiment [2], 41900 M⁻¹; in experiment [3] it was 74500 M⁻¹; in experiment [4], 271000 M⁻¹. For the same compound, the Activity entry in the experiment on A549 [5] and in the experiment with A549 [6] was “Dose-dependent effect” each time.
